Reference: patent US20230089247A1, “NOVEL COMPOUNDS SUITABLE FOR THE TREATMENT OF DYSLIPIDEMIA” (ZYDUS LIFESCIENCES LIMITED, priority 2019, published 2023)

Molecular target: PCSK9 (Homo sapiens, UniProt Q8NBP7)
Test: BODIPY-LDL uptake assay in HepG2 cells
Type: cell-based
Conditions: 5 μg/ml PCSK9, BODIPY-LDL
How it was run: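 Compounds pre-incubated 60 min with 5 μg/ml PCSK9 (0.2% DMSO), then added to HepG2 cells for 16 h; 1 μg/ml BODIPY-LDL added in serum-free medium for 5 h. Fluorescence (Ex 485/Em 520 nm) normalized to protein; PCSK9-only wells = 0%, no-PCSK9 wells = 100% uptake, giving percent increase in LDL uptake.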

Chain of PCSK9 (Q8NBP7 153-692): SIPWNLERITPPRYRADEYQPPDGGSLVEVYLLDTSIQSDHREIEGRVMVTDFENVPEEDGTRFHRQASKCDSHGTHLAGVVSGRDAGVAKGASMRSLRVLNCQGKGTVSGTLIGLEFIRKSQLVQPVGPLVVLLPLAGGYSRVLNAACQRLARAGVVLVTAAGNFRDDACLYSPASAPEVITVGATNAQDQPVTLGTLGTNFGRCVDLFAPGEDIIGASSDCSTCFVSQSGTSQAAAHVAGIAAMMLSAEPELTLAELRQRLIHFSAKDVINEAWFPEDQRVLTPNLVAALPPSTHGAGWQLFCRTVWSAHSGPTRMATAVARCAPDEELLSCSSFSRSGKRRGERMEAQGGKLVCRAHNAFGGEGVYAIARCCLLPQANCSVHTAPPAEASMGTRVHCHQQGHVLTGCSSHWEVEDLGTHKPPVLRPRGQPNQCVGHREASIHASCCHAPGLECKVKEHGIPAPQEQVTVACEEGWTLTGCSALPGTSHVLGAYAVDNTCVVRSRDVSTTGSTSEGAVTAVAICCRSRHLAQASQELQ

Row | % increase in LDL Uptake (1 μM test compound) [%] | % increase in LDL Uptake (10 μM test compound) [%] | % increase in LDL Uptake (30 μM test compound) [%] | Structure (SMILES)
1 | 0 | 0 | 58 | O=C(c1ccc(C2(O)CNC2)cc1)N1CCC(c2ccc(C(F)(F)F)cc2)CC1 [Example 155, (4-(3-hydroxyazetidin-3-yl)phenyl)(4-(4-(trifluoromethyl)phenyl)piperidin-1-yl)methanone]
2 | 0 | 42 | 0 | COC1(c2ccc(C(=O)N3CCC(c4ccc(C(F)(F)F)cc4)CC3)cc2)CCN(C(C)=O)CC1 [Example 158, 1-(4-methoxy-4-(4-(4-(4-(trifluoromethyl)phenyl)piperidine-1-carbonyl)phenyl)piperidin-1-yl)ethan-1-one]
3 | 0 | 0 | 16 | CCOC1(c2ccc(C(=O)N3CCC(c4ccc(C(F)(F)F)cc4)CC3)cc2)CCN(C(=O)OC(C)(C)C)CC1 [Example 161, tert-butyl 4-ethoxy-4-(4-(4-(4-(trifluoromethyl)phenyl)piperidine-1-carbonyl)phenyl) piperidine-1-carboxylate]
4 | 17 | 0 | 0 | O=C(c1ccc(C2(O)COC2)cc1)N1CCc2nc(-c3ccc(C(F)(F)F)cc3)sc2C1 [Example 175, (4-(3-hydroxyoxetan-3-yl)phenyl)(2-(4-(trifluoromethyl)phenyl)-6,7-dihydrothiazolo[5,4-c]pyridin-5(4H)-yl)methanone]
5 | 0 | 12 | 68 | O=C(c1cccc(C2(O)COC2)c1)N1CCc2scc(-c3ccc(C(F)(F)F)cc3)c2C1 [Example 176, (3-(3-hydroxyoxetan-3-yl)phenyl)(3-(4-(trifluoromethyl)phenyl)-6,7-dihydrothieno[3,2-c]pyridin-5(4H)-yl)methanone]
6 | 0 | 51 | 47 | CCOC1(c2cccc(C(=O)N3CC4CN(c5ccc(C(F)(F)F)cc5)CC4C3)c2)COC1 (stereo not drawn) [Example 178, (3-(3-ethoxyoxetan-3-yl)phenyl)(5-(4-(trifluoromethyl)phenyl)hexahydropyrrolo[3,4-c]pyrrol-2(1H)-yl)methanone]
7 | 3 | 19 | 26 | O=C(c1cccc(C2(OCC3CC3)COC2)c1)N1CC2CN(c3ccc(C(F)(F)F)cc3)CC2C1 (stereo not drawn) [Example 181, (3-(3-(cyclopropylmethoxy)oxetan-3-yl)phenyl)(5-(4-(trifluoromethyl)phenyl)hexahydropyrrolo[3,4-c]pyrrol-2(1H)-yl)methanone]
8 | 32 | 15 | 88 | COC1(c2cccc(NC(=O)N3CC4CN(c5ccc(C(F)(F)F)cc5)CC4C3)c2)COC1 (stereo not drawn) [Example 183, N-(3-(3-methoxyoxetan-3-yl)phenyl)-5-(4-(trifluoromethyl)phenyl) hexahydropyrrolo[3,4-c]pyrrole-2(1H)-carboxamide]
9 | 0 | 29 | 109 | COC1(c2ccc(C(=O)N3CCCN(c4ccc(C(F)(F)F)cc4)CC3)cc2)COC1 [Example 185, (4-(3-methoxyoxetan-3-yl)phenyl)(4-(4-(trifluoromethyl)phenyl)-1,4-diazepan-1-yl)methanone]
10 | 17 | 73 | 31 | O=C(c1ccc(C2(O)COC2)cc1)N1CCC2(CCN(c3ccc(C(F)(F)F)cc3)CC2)C1 [Example 186, (4-(3-hydroxyoxetan-3-yl)phenyl)(8-(4-(trifluoromethyl)phenyl)-2,8-diazaspiro[4.5]decan-2-yl)methanone]
11 | 0 | 152 | 136 | O=C(c1ccc(C2(OCCO)COC2)cc1)N1CCC(c2ccc(C(F)(F)F)cc2)CC1 [Example 188, (4-(3-(2-hydroxyethoxy)oxetan-3-yl)phenyl)(4-(4-(trifluoromethyl)phenyl)piperidin-1-yl)methanone]
12 | 0 | 116 | 19 | CCSCCOC1(c2ccc(C(=O)N3CCC(c4ccc(C(F)(F)F)cc4)CC3)cc2)COC1 [Example 189, (4-(3-(2-(ethylthio)ethoxy)oxetan-3-yl)phenyl)(4-(4-(trifluoromethyl)phenyl)piperidin-1-yl)methanone]
13 | 0 | 90 | 62 | CCS(=O)(=O)CCOC1(c2ccc(C(=O)N3CCC(c4ccc(C(F)(F)F)cc4)CC3)cc2)COC1 [Example 190, (4-(3-(2-(ethylsulfonyl)ethoxy)oxetan-3-yl)phenyl)(4-(4-(trifluoromethyl)phenyl)piperidin-1-yl)methanone]
14 | −8 | 25 | 3 | COC(=O)c1ccc(C2(O)CC3CN(C(=O)c4ccc(C5(O)COC5)cc4)CC3C2)cc1 (stereo not drawn) [Example 198, Methyl 4-(5-hydroxy-2-(4-(3-hydroxyoxetan-3-yl)benzoyl)octahydrocyclopenta[c]pyrrol-5-yl)benzoate]
15 | 0 | 0 | 73 | CN1CCN(c2cc(NC(=O)C3CCN(c4ccc(C(F)(F)F)cc4)CC3)cc(C3(O)COC3)c2)CC1 [Example 201, N-(3-(3-hydroxyoxetan-3-yl)-5-(4-methylpiperazin-1-yl)phenyl)-1-(4-(trifluoromethyl)phenyl)piperidine-4-carboxamide]
16 | 16 | 0 | 36 | COC1(c2ccc(C(=O)N3CC4=C(C3)CN(c3ccc(C(F)(F)F)cc3)C4)cc2)COC1 [Example 202, (4-(3-methoxyoxetan-3-yl)phenyl)(5-(4-(trifluoromethyl)phenyl)-3,4,5,6-tetrahydropyrrolo[3,4-c]pyrrol-2(1H)-yl)methanone]
17 | 56 | 14 | 189 | COC1(c2cccc(C(=O)N3CC4CN(c5ccc(C(F)(F)F)cn5)CC4C3)c2)COC1 (stereo not drawn) [Example 208, (3-(3-methoxyoxetan-3-yl)phenyl)(5-(5-(trifluoromethyl)pyridin-2-yl)hexahydropyrrolo[3,4-c]pyrrol-2 (1H)-yl)methanone]
18 | 20 | 137 | 21 | COC1(c2ccc(C(=O)N3CC4CN(c5ccc(C(F)(F)F)cn5)CC4C3)cc2)COC1 (stereo not drawn) [Example 209, (4-(3-methoxyoxetan-3-yl)phenyl)(5-(5-(trifluoromethyl)pyridin-2-yl)hexahydropyrrolo[3,4-c]pyrrol-2(1H)-yl)methanone]
19 | 0 | 107 | 0 | O=C(c1cccc(C2(O)COC2)c1)N1CC2CN(c3ccc(C(F)(F)F)cn3)CC2C1 (stereo not drawn) [Example 210, (3-(3-hydroxyoxetan-3-yl)phenyl)(5-(5-(trifluoromethyl)pyridin-2-yl)hexahydropyrrolo[3,4-c]pyrrol-2(1H)-yl)methanone]
